Results taken from PubChem BioAssay (NCI).
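Results reflect a 48-hour exposure of cells in 96-well plates to compound at five concentrations. Abbreviation: GI50, concentration required for 50% inhibition of growth. TGI marks complete inhibition of growth.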

How the values were obtained:
Assay in all cases: inhibition of tumour cell growth, NCI panel, 48 h
HCT-116 colon = tested on: HCT-116 colon
HCT-15 colon = tested on: HCT-15 colon
PC-3 prostate = tested on: PC-3 prostate
HOP-92 NSCLC = tested on: HOP-92 NSCLC
SR leukemia = tested on: SR leukemia
EKVX NSCLC = tested on: EKVX NSCLC
NCI-H522 lung = tested on: NCI-H522 lung
SK-OV-3 ovarian = tested on: SK-OV-3 ovarian
HL-60(TB) leukemia = tested on: HL-60(TB) leukemia
MALME-3M melanoma = tested on: MALME-3M melanoma
HCC-2998 colon = tested on: HCC-2998 colon
M14 melanoma = tested on: M14 melanoma
OVCAR-3 ovarian = tested on: OVCAR-3 ovarian
LOX IMVI melanoma = tested on: LOX IMVI melanoma
UACC-257 melanoma = tested on: UACC-257 melanoma
T-47D breast = tested on: T-47D breast
HT29 colon = tested on: HT29 colon
NCI-H23 lung = tested on: NCI-H23 lung
MCF7 breast = tested on: MCF7 breast
SK-MEL-28 melanoma = tested on: SK-MEL-28 melanoma
NCI/ADR-RES ovarian = tested on: NCI/ADR-RES ovarian
NCI-H226 lung = tested on: NCI-H226 lung
SF-295 CNS = tested on: SF-295 CNS
UO-31 renal = tested on: UO-31 renal
OVCAR-5 ovarian = tested on: OVCAR-5 ovarian
NCI-H460 lung = tested on: NCI-H460 lung
SF-268 CNS = tested on: SF-268 CNS
CCRF-CEM leukemia = tested on: CCRF-CEM leukemia
KM12 colon = tested on: KM12 colon

For `CN1CCN(Cc2ccc(NC(=O)c3cncc(C#Cc4cnc5ccc(O[C@@H]6CCOC6)nn45)c3)cc2C(F)(F)F)CC1`, the GI50 (HCT-116 colon) was 0.0649 µM, the TGI (HCT-116 colon) was 0.454 µM and the GI50 (HCT-15 colon) was 0.161 µM. For the same compound, the TGI (HCT-15 colon) was 0.639 µM, the GI50 (PC-3 prostate) was 0.277 µM and the TGI (PC-3 prostate) was 1.21 µM. The GI50 (HOP-92 NSCLC) was 0.0273 µM, the TGI (HOP-92 NSCLC) was 0.117 µM and the GI50 (SR leukemia) was 0.0823 µM. The TGI (SR leukemia) was 0.49 µM, the GI50 (EKVX NSCLC) was 0.288 µM and the TGI (EKVX NSCLC) was 0.942 µM. It also gave a GI50 (NCI-H522 lung) of 0.107 µM, a TGI (NCI-H522 lung) of 0.277 µM and a GI50 (SK-OV-3 ovarian) of 0.449 µM. The TGI (SK-OV-3 ovarian) was 1.12 µM, the GI50 (HL-60(TB) leukemia) was 0.0752 µM and the TGI (HL-60(TB) leukemia) was 0.364 µM. For the same compound, the GI50 (MALME-3M melanoma) was 0.0613 µM, the TGI (MALME-3M melanoma) was 0.294 µM and the GI50 (HCC-2998 colon) was 0.26 µM. For the same compound, the TGI (HCC-2998 colon) was 0.886 µM, the GI50 (M14 melanoma) was 0.0662 µM and the TGI (M14 melanoma) was 0.181 µM. The GI50 (OVCAR-3 ovarian) was 0.194 µM, the TGI (OVCAR-3 ovarian) was 0.768 µM and the GI50 (LOX IMVI melanoma) was 0.139 µM. It also gave a TGI (LOX IMVI melanoma) of 0.635 µM, a GI50 (UACC-257 melanoma) of 0.531 µM and a TGI (UACC-257 melanoma) of 1.24 µM. For the same compound, the GI50 (T-47D breast) was 0.556 µM, the TGI (T-47D breast) was 1.31 µM and the GI50 (HT29 colon) was 0.111 µM. The TGI (HT29 colon) was 0.602 µM, the GI50 (NCI-H23 lung) was 0.178 µM and the TGI (NCI-H23 lung) was 0.729 µM. It also gave a GI50 (MCF7 breast) of 0.0804 µM, a TGI (MCF7 breast) of 0.58 µM and a GI50 (SK-MEL-28 melanoma) of 0.186 µM. The TGI (SK-MEL-28 melanoma) was 0.813 µM, the GI50 (NCI/ADR-RES ovarian) was 0.676 µM and the TGI (NCI/ADR-RES ovarian) was 1.91 µM. The GI50 (NCI-H226 lung) was 0.0478 µM, the TGI (NCI-H226 lung) was 0.911 µM and the GI50 (SF-295 CNS) was 0.454 µM. It also gave a TGI (SF-295 CNS) of 1.18 µM, a GI50 (UO-31 renal) of 0.173 µM and a TGI (UO-31 renal) of 0.682 µM. For the same compound, the GI50 (OVCAR-5 ovarian) was 0.223 µM, the TGI (OVCAR-5 ovarian) was 0.883 µM and the GI50 (NCI-H460 lung) was 0.182 µM. It also gave a TGI (NCI-H460 lung) of 0.703 µM, a GI50 (SF-268 CNS) of 0.158 µM and a TGI (SF-268 CNS) of 0.562 µM. For the same compound, the GI50 (CCRF-CEM leukemia) was 0.0751 µM, the TGI (CCRF-CEM leukemia) was 3.05 µM and the GI50 (KM12 colon) was 0.005 µM. For the same compound, the TGI (KM12 colon) was 0.539 µM.
